This passage reports mass density results from the NIST ThermoML archive (doi:10.1021/je400679k).

Numbers after ± are expanded uncertainties.

For series [1] the following is noted: 101 kPa, Liquid, Vibrating tube method.
A short description of series [2]: xn = mol fraction of the nth substance listed. The note with it: 101 kPa, Liquid, Vibrating tube method, x2 = 0.

What is called mass density is the mass of a sample divided by its volume.

Take `CN(C)CCO` [2-(N,N-dimethylamino)ethanol]: the mass density is listed as 894.959 ± 0.11 kg/m3 in series [1] (283.15 K); 886.56 ± 0.12 kg/m3 in series [1] (293.15 K); 878.059 ± 0.12 kg/m3 in series [1] (303.15 K); 869.428 ± 0.12 kg/m3 in series [1] (313.15 K); 860.655 ± 0.12 kg/m3 in series [1] (323.15 K); 851.72 ± 0.13 kg/m3 in series [1] (333.15 K). For the same molecule, the mass density in series [1] (343.15 K) was 842.604 ± 0.13 kg/m3; in series [1] (353.15 K), 833.288 ± 0.13 kg/m3; in series [1] (363.15 K), 823.754 ± 0.14 kg/m3.
Turning to `CN(C)CCO` [2-(N,N-dimethylamino)ethanol] + CNCCCN, the mass density in series [2] (283.15 K) is recorded as 894.959 ± 0.11 kg/m3; in series [2] (293.15 K) it was 886.56 ± 0.12 kg/m3; in series [2] (303.15 K) it was 878.059 ± 0.12 kg/m3; in series [2] (313.15 K) it was 869.428 ± 0.12 kg/m3; in series [2] (323.15 K) it was 860.655 ± 0.12 kg/m3; in series [2] (333.15 K), 851.72 ± 0.13 kg/m3. For the same molecule, the mass density worked out at 842.604 ± 0.13 kg/m3 in series [2] (343.15 K), 833.288 ± 0.13 kg/m3 in series [2] (353.15 K) and 823.754 ± 0.14 kg/m3 in series [2] (363.15 K).
Regarding `CCN(CC)CCO` [(diethylamino)ethanol], the mass density amounted to 894.423 ± 0.23 kg/m3 in series [1] (283.15 K); 885.356 ± 0.23 kg/m3 in series [1] (293.15 K); 876.155 ± 0.23 kg/m3 in series [1] (303.15 K); 866.828 ± 0.23 kg/m3 in series [1] (313.15 K); 857.388 ± 0.23 kg/m3 in series [1] (323.15 K); 847.839 ± 0.23 kg/m3 in series [1] (333.15 K). Besides, the values for the mass density in series [1] (343.15 K), in series [1] (353.15 K) and in series [1] (363.15 K) were 838.157 ± 0.23 kg/m3, 828.488 ± 0.23 kg/m3 and 818.597 ± 0.24 kg/m3, respectively.
Turning to `CCN(CC)CCO` [(diethylamino)ethanol] + CNCCCN, the mass density stood at 894.423 ± 0.23 kg/m3 in series [2] (283.15 K); 885.356 ± 0.23 kg/m3 in series [2] (293.15 K); 876.155 ± 0.23 kg/m3 in series [2] (303.15 K); 866.828 ± 0.23 kg/m3 in series [2] (313.15 K); 857.388 ± 0.23 kg/m3 in series [2] (323.15 K); 847.839 ± 0.23 kg/m3 in series [2] (333.15 K). In addition, the mass density is 838.157 ± 0.23 kg/m3 in series [2] (343.15 K), 828.488 ± 0.23 kg/m3 in series [2] (353.15 K) and 818.597 ± 0.24 kg/m3 in series [2] (363.15 K).
On to `CNCCCN` [N-methyl-1,3-diaminopropane], for which the mass density was 860.459 ± 0.68 kg/m3 in series [1] (283.15 K); 851.605 ± 0.67 kg/m3 in series [1] (293.15 K); 842.69 ± 0.67 kg/m3 in series [1] (303.15 K); 833.715 ± 0.66 kg/m3 in series [1] (313.15 K); 824.673 ± 0.65 kg/m3 in series [1] (323.15 K); 815.559 ± 0.64 kg/m3 in series [1] (333.15 K). For the same molecule, the mass density in series [1] (343.15 K) stood at 806.37 ± 0.63 kg/m3; in series [1] (353.15 K), 797.093 ± 0.62 kg/m3; in series [1] (363.15 K), 787.723 ± 0.61 kg/m3.
As for `CN(CCO)CCO` [N-methyldiethanolamine], the mass density was 1040.06 ± 0.92 kg/m3 in series [1] (293.15 K); 1032.47 ± 0.9 kg/m3 in series [1] (303.15 K); 1024.86 ± 0.89 kg/m3 in series [1] (313.15 K); 1017.21 ± 0.87 kg/m3 in series [1] (323.15 K); 1009.51 ± 0.86 kg/m3 in series [1] (333.15 K); 1001.73 ± 0.84 kg/m3 in series [1] (343.15 K). Besides, the results for the mass density in series [1] (353.15 K) and in series [1] (363.15 K) were 993.889 ± 0.83 kg/m3 and 985.958 ± 0.82 kg/m3, respectively.
On to `CN(CCO)CCO` [N-methyldiethanolamine] + CNCCCN, for which the mass density in series [2] (293.15 K) turned out to be 1040.06 ± 0.92 kg/m3; in series [2] (303.15 K) it was 1032.47 ± 0.9 kg/m3; in series [2] (313.15 K) it was 1024.86 ± 0.89 kg/m3; in series [2] (323.15 K) it was 1017.21 ± 0.87 kg/m3; in series [2] (333.15 K), 1009.51 ± 0.86 kg/m3; in series [2] (343.15 K), 1001.73 ± 0.84 kg/m3. Moreover, the values for the mass density in series [2] (353.15 K) and in series [2] (363.15 K) were 993.889 ± 0.83 kg/m3 and 985.958 ± 0.82 kg/m3, respectively.
As to `O` [water], the mass density is recorded as 999.701 ± 0.033 kg/m3 in series [1] (283.15 K); 983.197 ± 0.041 kg/m3 in series [1] (333.15 K); 977.76 ± 0.043 kg/m3 in series [1] (343.15 K); 971.788 ± 0.046 kg/m3 in series [1] (353.15 K); 965.305 ± 0.048 kg/m3 in series [1] (363.15 K).
In the case of `O` [water] + CNCCCN, the mass density in series [2] (283.15 K) was 999.701 ± 0.033 kg/m3; in series [2] (333.15 K), 983.197 ± 0.041 kg/m3; in series [2] (343.15 K) it was 977.76 ± 0.043 kg/m3; in series [2] (353.15 K) it was 971.788 ± 0.046 kg/m3; in series [2] (363.15 K) it was 965.305 ± 0.048 kg/m3.
